As a reminder, the melting point is the temperature, or range, at which the solid turns liquid.

In the case of `CC#CCOc1cc2ncc(C#N)c(Nc3cc(OC)c(Cl)cc3Cl)c2cc1OC` [Example 1, 7-(2-Butynyloxy)-4-[(2,4-dichloro-5-methoxyphenyl)amino]-6-methoxy-3-quinolinecarbonitrile], the melting point was in the range of 193 to 197 °C. Under `COc1cc(Nc2c(C#N)cnc3cc(OCC(C)(C)CN(C)C)c(OC)cc23)c(Cl)cc1Cl` [Example 2, 4-[(2,4-Dichloro-5-methoxyphenyl)amino]-7-(3-dimethylamino-2,2-dimethylpropoxy)-6-methoxy-3-quinolinecarbonitrile] stands 178 to 180 °C; under `COc1cc(Nc2c(C#N)cnc3cc(OCCCN4CCS(=O)(=O)CC4)c(OC)cc23)c(Cl)cc1Cl` [Example 3, 4-[(2,4-Dichloro-5-methoxyphenyl)amino]-7-[3-(1,1-dioxido-4-thiomorpholinyl)propoxy]-6-methoxy-3-quinolinecarbonitrile], 118 to 120 °C. The compound `COc1cc(Nc2c(C#N)cnc3cc(OCc4cccs4)c(OC)cc23)c(Cl)cc1Cl` [Example 5, 4-[(2,4-Dichloro-5-methoxyphenyl)amino]-6-methoxy-7-(2-thienylmethoxy)-3-quinolinecarbonitrile] registered a melting point of 194 to 196 °C. Under `COc1cc(Nc2c(C#N)cnc3cc(OCc4ccccc4)c(OC)cc23)c(Cl)cc1Cl` [Example 6, 7-Benzyloxy-4-[(2,4-dichloro-5-methoxyphenyl)amino]-6-methoxy-3-quinolinecarbonitrile] stands 198 to 200 °C; under `COc1cc(Nc2c(C#N)cnc3cc(Sc4ccccc4)c(OC)cc23)c(Cl)cc1Cl` [Example 8, 4-[(2,4-Dichloro-5-methoxyphenyl)amino]-6-methoxy-7-phenylsulfanyl-3-quinolinecarbonitrile], 220 to 222 °C. Under `COCCOc1cc2ncc(C#N)c(NC3CCCC3)c2cc1OC` [Example 9, 4-Cyclopentylamino-6-methoxy-7-(2-methoxyethoxy)-3-quinolinecarbonitrile] stands 87 to 90 °C; under `CCCCNc1c(C#N)cnc2cc(OCCOC)c(OC)cc12` [Example 10, 4-Butylamino-6-methoxy-7-(2-methoxyethoxy)-3-quinolinecarbonitrile], 99 to 102 °C. On to `COc1cc(Nc2c(C#N)cnc3cc(SCc4ccccc4)c(OC)cc23)c(Cl)cc1Cl` [Example 11, 7-Benzylthio-4-[(2,4-dichloro-5-methoxyphenyl)amino]-6-methoxy-3-quinolinecarbonitrile], for which the melting point lay within 123 to 125 °C. Under `COc1cc(Nc2c(C#N)cnc3cc(Oc4ccncc4)c(OC)cc23)c(Cl)cc1Cl` [Example 12, 4-[(2,4-Dichloro-5-methoxyphenyl)amino]-6-methoxy-7-(pyridin-4-yloxy)-3-quinolinecarbonitrile] stands 267 to 269 °C; under `COCCOc1cc2ncc(C#N)c(Nc3cc(OC)c(Cl)cc3Cl)c2cc1OC` [Example 14, 4-[(2,4-Dichloro-5-methoxyphenyl)amino]-6-methoxy-7-[2-methoxyethoxy]-3-quinolinecarbonitrile], 210 to 212 °C.

`COCCOc1cc2ncc(C#N)c(Nc3cc(OC)c(OC)c(OC)c3)c2cc1OC` [Example 17, 6-Methoxy-7-[2-methoxyethoxy]-4-[(3,4,5-trimethoxyphenyl)amino]-3-quinolinecarbonitrile] gave a melting point of 188 to 190 °C. Under `COCCOc1cc2c(Nc3ccc(Sc4nccn4C)c(Cl)c3)c(C#N)cnc2cc1OCCCN(C)C` [Example 20, 4-({3-Chloro-4-[(1-methyl-1H-imidazol-2-yl)sulfanyl]phenyl}amino)-7-[3-(dimethylamino)propoxy]-6-(2-methoxyethoxy)-3-quinolinecarbonitrile] stands 194 to 203 °C.

The record behind these values is patent US6780996B2, “Process for the preparation of 7-substituted-3 quinolinecarbonitriles” (Wyeth Holdings Corporation, priority 2002, dated 2004).
